The values that follow come from ChEMBL document CHEMBL5518174 (Eur J Med Chem, 2024).

pIC50: −log10 of the molar value. Active and inactive are the calls of the source. The calls are words filed in the database; no cut-off is given here.

Series [1] can be described thus: Toxicity in athymic nude BALB/c mouse xenografted with human MDA-MB-231 cells assessed as effect on BUN level in serum at 3 mg/kg, ip administered 5 times a week for 7 weeks. To be noted: in vivo, 1176 h. It counts as organism-based. Background: Xenograft models place foreign cells or tissue in a host animal.
The target in the next series is T1, Histone deacetylase 11 (Homo sapiens, UniProt Q96DB2).
T1 sequence (Q96DB2 whole entry): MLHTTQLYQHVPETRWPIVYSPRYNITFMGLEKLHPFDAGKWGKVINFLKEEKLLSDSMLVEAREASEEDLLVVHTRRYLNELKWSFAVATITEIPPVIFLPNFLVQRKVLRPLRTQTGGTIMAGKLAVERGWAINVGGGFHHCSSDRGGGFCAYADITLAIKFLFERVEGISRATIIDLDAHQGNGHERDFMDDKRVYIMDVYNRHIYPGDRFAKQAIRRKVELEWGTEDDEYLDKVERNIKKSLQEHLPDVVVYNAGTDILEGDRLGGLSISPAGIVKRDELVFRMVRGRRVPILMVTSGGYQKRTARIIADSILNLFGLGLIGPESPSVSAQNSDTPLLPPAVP
Briefly: Inhibition of recombinant human HDAC11 using acetylated luminogenic substrate incubated for 10 mins by ultra-glo recombinant firefly luciferase based luminescence assay.

Series [2] in a line: Effect on HDAC6 protein expression in human MDA-MB-231 cells assessed as fold change at 0.1 uM incubated for 24 hrs by immunoblotting analysis (reference value: 1). The format is functional. A general note: Immunoblotting shows a protein as a band on a membrane.
The next series concerns the target Histone deacetylase 2 (Homo sapiens, UniProt Q92769). Nature of the series: Inhibition of recombinant human HDAC2 using acetylated luminogenic substrate incubated for 10 mins by ultra-glo recombinant firefly luciferase based luminescence assay.
Series [3] in a line: Upregulation of acetylated H3 protein expression in human NCI-H1975 cells assessed as fold change at 0.1 uM incubated for 24 hrs by immunoblotting analysis (reference value: 1). It counts as functional.
Series [4] is described as follows: Upregulation of acetylated H3 protein expression in human MDA-MB-231 cells assessed as fold change at 0.05 uM incubated for 24 hrs by immunoblotting analysis (reference value: 1). The format is functional.
Series [5] in a line: Toxicity in athymic nude BALB/c mouse xenografted with human MDA-MB-231 cells assessed as effect on ALT level in serum at 3 mg/kg, ip administered 5 times a week for 7 weeks. The format is organism-based. As to conditions: in vivo, 1176 h.
Series [6] is described as follows: Upregulation of acetylated H3 protein expression in human NCI-H1975 cells assessed as fold change at 0.05 uM incubated for 24 hrs by immunoblotting analysis (reference value: 1). The format is functional.
The target in a further series is Histone deacetylase 1 (Homo sapiens, UniProt Q13547). Briefly: Inhibition of recombinant human HDAC1 using acetylated luminogenic substrate incubated for 10 mins by ultra-glo recombinant firefly luciferase based luminescence assay.
Histone deacetylase 1, sequence (Q13547 whole entry): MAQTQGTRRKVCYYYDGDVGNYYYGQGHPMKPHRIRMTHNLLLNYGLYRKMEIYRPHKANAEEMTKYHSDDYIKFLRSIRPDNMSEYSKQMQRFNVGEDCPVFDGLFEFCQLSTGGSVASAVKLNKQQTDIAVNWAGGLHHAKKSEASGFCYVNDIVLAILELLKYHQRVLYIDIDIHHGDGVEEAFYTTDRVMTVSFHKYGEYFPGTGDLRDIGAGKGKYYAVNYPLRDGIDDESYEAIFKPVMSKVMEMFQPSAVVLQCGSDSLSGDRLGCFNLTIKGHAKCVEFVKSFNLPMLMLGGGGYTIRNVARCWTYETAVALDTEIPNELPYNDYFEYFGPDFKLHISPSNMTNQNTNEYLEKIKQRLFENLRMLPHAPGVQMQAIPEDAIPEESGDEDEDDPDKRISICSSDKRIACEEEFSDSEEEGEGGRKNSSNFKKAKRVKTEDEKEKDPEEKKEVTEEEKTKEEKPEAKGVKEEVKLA
Series [7] is described as follows: Downregulation of HDAC3 protein expression in human NCI-H1975 cells assessed as fold change at 0.1 uM incubated for 24 hrs by immunoblotting analysis (reference value: 1). It counts as functional.
Another series deals with Histone deacetylase. Briefly: Inhibition of HDAC in human HeLa cells nuclear extract. It counts as subcellular, Nucleus.
The test system of series [8] is MDA-MB-231. Nature of the series: Antitumor activity against human MDA-MB-231 cells xenografted in athymic nude BALB/c mouse assessed as average tumor size at 3 mg/kg, ip administered 5 times a week for 7 weeks and measured on day 47 (reference value: 15.4 +/- 5.3 mm3). It counts as functional. As to conditions: time 47 day.
The next series deals with NCI-H1975. Briefly: cells. As to conditions: Homo sapiens, NCI-H1975, 48 h. The format is functional, cell-based.
Series [9] has as its system MDA-MB-231. Briefly: Antitumor activity against human MDA-MB-231 cells xenografted in athymic nude BALB/c mouse assessed as reduction in tumor growth at 3 mg/kg, ip administered 5 times a week for 7 weeks by vernier caliper method. The format is functional, organism-based.
Series [10] in a line: Toxicity in athymic nude BALB/c mouse xenografted with human NCI-H1975 cells assessed as reduction in body weight at 6 mg/kg, ip administered 5 times a week for 3 weeks and measured on day 22. It counts as organism-based. To be noted: in vivo, 528 h, time 22 day.
Series [11] is described as follows: Downregulation of HDAC2 protein expression in human NCI-H1975 cells assessed as fold change at 0.1 uM incubated for 24 hrs by immunoblotting analysis (reference value: 1). The format is functional.
The nature of series [12]: Downregulation of HDAC4 protein expression in human NCI-H1975 cells assessed as fold change at 0.1 uM incubated for 24 hrs by immunoblotting analysis (reference value: 1). It counts as functional.
Series [13] can be described thus: Upregulation of acetylated H4 protein expression in human MDA-MB-231 cells assessed as fold change at 0.05 uM incubated for 24 hrs by immunoblotting analysis (reference value: 1). It counts as functional.

Broadly, the pIC50 is the negative decadic logarithm of the IC50, by convention in mol/L. In general, IC50 refers to the midpoint of a concentration-inhibition curve. Higher therefore signals lower potency.

Histone deacetylase 2, sequence (Q92769 whole entry): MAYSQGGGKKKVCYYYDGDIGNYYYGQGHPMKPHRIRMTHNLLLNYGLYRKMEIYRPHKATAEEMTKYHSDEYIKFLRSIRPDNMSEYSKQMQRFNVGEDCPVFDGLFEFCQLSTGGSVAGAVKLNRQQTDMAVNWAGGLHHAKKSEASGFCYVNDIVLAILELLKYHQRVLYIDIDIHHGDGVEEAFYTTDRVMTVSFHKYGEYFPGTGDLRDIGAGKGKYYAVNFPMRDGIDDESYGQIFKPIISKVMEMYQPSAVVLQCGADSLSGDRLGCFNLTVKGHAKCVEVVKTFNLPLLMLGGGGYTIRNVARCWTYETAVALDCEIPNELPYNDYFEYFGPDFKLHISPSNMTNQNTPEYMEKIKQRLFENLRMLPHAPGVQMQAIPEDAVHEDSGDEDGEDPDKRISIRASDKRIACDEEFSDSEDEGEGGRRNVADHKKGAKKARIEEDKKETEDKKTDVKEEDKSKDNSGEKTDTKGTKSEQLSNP
Description for NCI-H1975: Cytotoxicity against human NCI-H1975 cells assessed as inhibition of cell growth incubated for 48 hrs by Celltiter-glo assay

Turning to `CCOc1ccc(-c2nc(C(=O)NCc3ccc(C(=O)NO)cc3)c3[nH]c(=O)n(-c4cccnc4OC)c3n2)cn1`, the Activity result is given as “Non-Toxic” in series [1], “Non-Toxic” in series [5], 1.7 mm3 in the series on MDA-MB-231 [8] and “Non-Toxic” in [10]. The pIC50 at Histone deacetylase 11 was 7.30; at Histone deacetylase 2, 7.94; at Histone deacetylase 1, 8.29; in the series with NCI-H1975, 5.92. Further, the “fold change (FC)” value in series [2] is given as 1.17; in [3] it was 2.19; in series [4] it was 1.29; in series [6] it was 1.77; in series [7], 0.37; in series [11], 0.69. The “fold change (FC)” value was determined as 0.6 in series [12] and 1.74 in series [13]. This molecule registered an IC50 at Histone deacetylase of 40 nM. In addition, the outcome in the series on MDA-MB-231 [9] was Active.
